Reference: ChEMBL document CHEMBL1201862, “PubChem BioAssay data set” (2004)
Calls of active or inactive are those of the source.

Experiments:
[1] = biological target: T1, Cytochrome P450 3A4 (Homo sapiens, UniProt P08684)
[2] = biological target: T2, Cytochrome P450 2C9 (Homo sapiens, UniProt P11712)
[3] = A cytotoxicity screen of small molecule inhibitors of the PhoP region in Salmonella typhi identified in the primary screen. [Related pubchem assays: 1850, 1864, 1985 ]; format: functional
[4] = biological target: Eukaryotic translation initiation factor 4E (Mus musculus, UniProt P63073); assay: blockers of eIF4G binding by eIF4E – biochemical, TR-FRET, dose response (AID 855); format: functional;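 note: potency for disrupting eIF4E binding to eIF4GI seen as loss of FRET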
Sequence of Eukaryotic translation initiation factor 4E (P63073 whole entry): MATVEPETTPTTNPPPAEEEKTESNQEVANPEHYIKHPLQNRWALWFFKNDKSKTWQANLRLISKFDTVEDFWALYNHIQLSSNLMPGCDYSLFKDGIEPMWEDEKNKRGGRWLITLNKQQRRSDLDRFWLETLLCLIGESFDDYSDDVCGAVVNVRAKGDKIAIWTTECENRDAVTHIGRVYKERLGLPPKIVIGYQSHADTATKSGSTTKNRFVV

[5] = biological target: Kallikrein-7 (Homo sapiens, UniProt P49862); assay: Fluorescence Intensity-based biochemical primary high throughput dose response assay to identify activators of kallikrein-7 (K7) zymogen.
Sequence of Kallikrein-7 (P49862 whole entry, the tested form may be a part): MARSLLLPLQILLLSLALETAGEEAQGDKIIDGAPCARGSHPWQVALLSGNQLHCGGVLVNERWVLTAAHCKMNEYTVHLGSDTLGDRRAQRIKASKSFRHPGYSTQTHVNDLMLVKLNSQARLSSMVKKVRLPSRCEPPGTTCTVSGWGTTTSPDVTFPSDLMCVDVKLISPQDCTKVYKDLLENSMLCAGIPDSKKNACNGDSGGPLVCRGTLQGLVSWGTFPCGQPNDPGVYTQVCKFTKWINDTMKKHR

[6] = biological target: T3, Carboxy-terminal domain RNA polymerase II polypeptide A small phosphatase 1 (Homo sapiens, UniProt Q9GZU7); assay: CTDSP1 inhibitors, concentration-response, biochemical, absorbance readout, ultra-high-throughput screen actives (AID 540297); format: functional
T3 sequence (Q9GZU7 whole entry): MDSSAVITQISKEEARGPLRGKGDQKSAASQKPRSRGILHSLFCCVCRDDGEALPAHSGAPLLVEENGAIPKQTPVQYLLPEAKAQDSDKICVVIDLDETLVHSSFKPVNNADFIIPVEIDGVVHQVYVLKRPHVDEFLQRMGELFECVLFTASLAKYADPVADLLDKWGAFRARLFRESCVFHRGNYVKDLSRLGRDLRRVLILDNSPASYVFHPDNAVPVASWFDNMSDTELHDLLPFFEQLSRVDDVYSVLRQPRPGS

[7] = biological target: T1, Cytochrome P450 3A4; remark: listed apart in the source
[8] = biological target: Cytochrome P450 2C19 (Homo sapiens, UniProt P33261); assay: Cytochrome panel assay with activity outcomes. Panel member name: p450-cyp2c19 Compounds with AC50 equal or less than 10 uM are considered active; format: functional
Sequence of Cytochrome P450 2C19 (P33261 whole entry): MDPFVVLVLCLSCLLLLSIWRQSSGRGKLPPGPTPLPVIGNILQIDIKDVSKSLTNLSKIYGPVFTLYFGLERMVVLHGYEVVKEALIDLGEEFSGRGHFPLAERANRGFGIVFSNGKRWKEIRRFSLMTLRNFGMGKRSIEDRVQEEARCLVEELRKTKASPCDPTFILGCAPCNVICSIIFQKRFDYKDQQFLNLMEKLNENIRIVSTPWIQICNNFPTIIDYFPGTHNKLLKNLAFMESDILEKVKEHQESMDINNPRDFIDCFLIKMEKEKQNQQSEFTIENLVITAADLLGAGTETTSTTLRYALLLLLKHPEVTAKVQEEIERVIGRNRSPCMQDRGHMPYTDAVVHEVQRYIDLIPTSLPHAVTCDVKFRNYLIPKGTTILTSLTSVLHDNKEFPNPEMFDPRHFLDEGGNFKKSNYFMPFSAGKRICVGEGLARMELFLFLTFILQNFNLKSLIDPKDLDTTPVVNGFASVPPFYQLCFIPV

[9] = biological target: T1, Cytochrome P450 3A4; details: Potency
[10] = biological target: Cytochrome P450 2D6 (Homo sapiens, UniProt P10635);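 note: CYP2D6 member of a cytochrome P450 panel assay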
Sequence of Cytochrome P450 2D6 (P10635 whole entry): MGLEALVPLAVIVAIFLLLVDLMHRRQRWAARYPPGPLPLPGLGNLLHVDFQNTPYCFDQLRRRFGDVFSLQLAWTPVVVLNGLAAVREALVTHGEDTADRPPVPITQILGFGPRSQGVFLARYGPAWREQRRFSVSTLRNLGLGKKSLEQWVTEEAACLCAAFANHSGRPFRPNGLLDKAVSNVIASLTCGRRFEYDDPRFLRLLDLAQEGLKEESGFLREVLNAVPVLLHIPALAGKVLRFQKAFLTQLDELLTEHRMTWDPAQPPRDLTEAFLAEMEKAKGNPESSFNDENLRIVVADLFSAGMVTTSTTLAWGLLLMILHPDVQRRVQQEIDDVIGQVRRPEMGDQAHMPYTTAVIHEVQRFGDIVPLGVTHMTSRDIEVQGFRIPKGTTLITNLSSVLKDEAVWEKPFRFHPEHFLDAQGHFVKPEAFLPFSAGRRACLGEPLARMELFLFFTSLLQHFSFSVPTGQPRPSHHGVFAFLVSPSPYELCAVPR

[11] = biological target: T2, Cytochrome P450 2C9; remark: listed apart in the source
[12] = biological target: T4, Short transient receptor potential channel 4 (Mus musculus, UniProt Q9QUQ5); assay: calcium entry via TRPC4 opening agents – cell-based, HEK293 TRPC4/mu-opioid, Fluo-4 calcium, dose response (AID 434937); format: functional
T4 sequence (Q9QUQ5 whole entry): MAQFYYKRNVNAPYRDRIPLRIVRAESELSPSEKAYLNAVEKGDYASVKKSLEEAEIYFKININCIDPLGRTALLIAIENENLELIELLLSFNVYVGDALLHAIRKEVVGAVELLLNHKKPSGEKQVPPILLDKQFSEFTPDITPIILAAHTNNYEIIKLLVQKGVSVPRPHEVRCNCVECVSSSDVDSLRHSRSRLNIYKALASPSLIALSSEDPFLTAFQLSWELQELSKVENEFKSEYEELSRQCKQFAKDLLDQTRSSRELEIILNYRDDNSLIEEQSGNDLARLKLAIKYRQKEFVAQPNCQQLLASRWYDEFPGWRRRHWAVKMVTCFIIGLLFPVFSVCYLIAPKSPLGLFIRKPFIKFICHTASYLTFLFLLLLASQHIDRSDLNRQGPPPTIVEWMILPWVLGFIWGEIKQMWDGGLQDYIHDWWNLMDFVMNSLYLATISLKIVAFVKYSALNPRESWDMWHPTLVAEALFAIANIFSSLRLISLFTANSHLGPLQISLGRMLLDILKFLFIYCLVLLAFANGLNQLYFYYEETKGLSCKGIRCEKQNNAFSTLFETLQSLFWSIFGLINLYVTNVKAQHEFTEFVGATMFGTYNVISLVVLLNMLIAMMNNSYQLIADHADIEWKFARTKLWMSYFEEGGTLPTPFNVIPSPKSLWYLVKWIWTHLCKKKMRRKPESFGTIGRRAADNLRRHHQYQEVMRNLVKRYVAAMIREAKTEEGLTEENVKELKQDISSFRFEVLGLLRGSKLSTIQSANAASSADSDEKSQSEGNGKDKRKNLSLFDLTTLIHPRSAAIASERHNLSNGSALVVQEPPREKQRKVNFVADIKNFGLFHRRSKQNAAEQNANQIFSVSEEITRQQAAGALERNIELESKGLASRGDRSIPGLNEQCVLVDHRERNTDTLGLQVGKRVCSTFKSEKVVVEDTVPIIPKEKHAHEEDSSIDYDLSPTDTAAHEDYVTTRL

[13] = microbe, parasite or virus in culture; format: functional; details: Mycobacterium tuberculosis
[14] = viability of HCT116 lacking mutant beta-catenin – cell-based, human colon tumor, dose response (AID 1045); format: functional;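 note: HCT116 colon tumor cells with beta catenin knocked out; cells exposed to compound for 60 hours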
[15] = system: BJ; assay: growth inhibition of engineered Ras-driven BJ cells – cell-based, alamar blue fluorescence, cherrypicked samples, dose response (AID 2631); format: functional; details: Homo sapiens;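 note: confirmatory dose-response assay in RAS-dependent BJ fibroblasts engineered with TERT, LT and ST, with cytotoxicity read by fluorescence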
[16] = system: INS1; assay: INS-1E survival protection against cytokine death – cell-based, luminescence, retest, dose response (AID 449756); format: functional; details: Rattus norvegicus;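 note: cell death triggered by IL-1 beta plus TNF-alpha plus IFN-gamma mixture; protective hits raise ATP signal compared with cytokine alone wells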
[17] = viability of PTEN-deleted HCT116 cells – cell-based, HCT116 PTEN knockout, dose response (AID 1047); format: functional;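 note: HCT116 colon tumor cells with PTEN knocked out; cells exposed to compound for 60 hours before readout; potency for loss of cell viability measured by luminescence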
[18] = biological target: Protein Wnt-3a (Mus musculus, UniProt P27467); assay: antagonism of Wnt3a pathway luciferase reporter – Wnt-LIGHT cells, luminescence, selectivity assay for Gli-SUFU antagonist project, dose response (AID 651570); format: functional; details: read-out: IC50_Mean;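 note: Wnt-LIGHT reporter cells stimulated with conditioned medium from Wnt3a-producing cells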
Sequence of Protein Wnt-3a (P27467 whole entry): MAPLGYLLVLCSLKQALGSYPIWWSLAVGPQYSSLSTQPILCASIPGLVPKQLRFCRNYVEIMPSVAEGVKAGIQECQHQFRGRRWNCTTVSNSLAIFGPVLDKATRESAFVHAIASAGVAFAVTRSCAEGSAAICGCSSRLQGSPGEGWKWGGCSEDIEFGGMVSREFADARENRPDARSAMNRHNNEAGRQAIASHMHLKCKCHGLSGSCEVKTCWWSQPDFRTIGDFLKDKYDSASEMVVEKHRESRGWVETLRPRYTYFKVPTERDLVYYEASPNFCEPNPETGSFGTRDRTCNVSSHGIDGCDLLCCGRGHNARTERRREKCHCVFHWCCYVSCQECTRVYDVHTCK

[19] = reduction of Shn3 3'UTR-driven luciferase in osteoblasts – cell-based, Clone20 osteoblasts, firefly luciferase, cherry-picked, dose response (AID 624132); format: functional;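 note: firefly luciferase luminescence from reporter carrying the Shn3 3'UTR in osteoblasts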
[20] = non-specific 3'UTR reporter inhibition in Clone20-Shn3RL – cell-based, Renilla luciferase, cherry-picked, counter-screen for Shn3 inhibitor project, dose response (AID 624133); format: functional

T2 sequence (P11712 whole entry): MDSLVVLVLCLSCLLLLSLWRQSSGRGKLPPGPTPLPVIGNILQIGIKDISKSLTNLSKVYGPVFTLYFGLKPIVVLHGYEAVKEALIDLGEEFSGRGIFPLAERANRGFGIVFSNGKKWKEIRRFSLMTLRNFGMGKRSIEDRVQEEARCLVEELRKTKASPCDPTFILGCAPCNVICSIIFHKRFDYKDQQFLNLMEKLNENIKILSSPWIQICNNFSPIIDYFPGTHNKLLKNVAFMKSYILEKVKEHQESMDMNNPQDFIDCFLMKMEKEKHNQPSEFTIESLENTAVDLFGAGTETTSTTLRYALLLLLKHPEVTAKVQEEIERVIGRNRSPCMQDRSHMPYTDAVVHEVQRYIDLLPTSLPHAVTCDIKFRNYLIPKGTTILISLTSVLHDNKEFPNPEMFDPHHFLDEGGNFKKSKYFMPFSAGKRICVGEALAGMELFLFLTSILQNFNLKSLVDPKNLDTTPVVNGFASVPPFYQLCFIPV
T1 sequence (P08684 whole entry): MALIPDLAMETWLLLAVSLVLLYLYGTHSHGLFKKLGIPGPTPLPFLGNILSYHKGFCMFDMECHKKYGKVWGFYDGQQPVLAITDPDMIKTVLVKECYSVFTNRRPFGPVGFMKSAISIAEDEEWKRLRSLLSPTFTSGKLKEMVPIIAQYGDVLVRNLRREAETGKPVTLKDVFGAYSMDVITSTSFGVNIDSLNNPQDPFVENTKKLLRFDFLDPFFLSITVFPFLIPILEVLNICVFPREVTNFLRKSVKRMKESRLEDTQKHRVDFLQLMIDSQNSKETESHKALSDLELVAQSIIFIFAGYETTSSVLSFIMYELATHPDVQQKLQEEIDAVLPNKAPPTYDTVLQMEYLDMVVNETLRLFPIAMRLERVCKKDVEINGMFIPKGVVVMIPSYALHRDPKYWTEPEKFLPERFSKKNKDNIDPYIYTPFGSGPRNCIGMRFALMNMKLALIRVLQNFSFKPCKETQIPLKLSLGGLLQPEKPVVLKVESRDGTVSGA

SMILES: CSc1ccc(Cl)c(C(=O)NCCOc2cc(C)ccc2C(C)C)c1
- AC50 [1]: 1 µM (inconclusive)
- AC50 [2]: inconclusive

SMILES: CCCCOc1ccc(OCCNC(=O)c2ccco2)cc1
- EC50 [3]: > 50 µM (active)

SMILES: O=C(Cn1cnc2ccccc21)Nc1ccc(SC(F)F)cc1
- EC50 [3]: > 50 µM (active)

SMILES: O=C(NC1CCC(O)CC1)c1cc(-c2ccco2)nc2ccccc12 (stereo not drawn)
- IC50 [4]: 50 µM (inactive)
- EC50 [5]: > 69.5 µM (inactive)
- IC50 [6]: 5.9 µM (active)

SMILES: O=C(C[n+]1ccccc1)c1ccc(-c2ccccc2)cc1
- EC50 [3]: > 50 µM (active)

SMILES: CN1CCN(c2ncc3nc(-c4ccc(F)cc4)c(=O)n(C4CC4)c3n2)CC1
- AC50 [7]: inconclusive
- AC50 ([8]; read-out: AC50): 25.1 µM (inconclusive)

SMILES: CC(=O)OC1CC2C(C)(C)C(O)C=C[C@@]2(C)C2CC[C@]3(C)C(=CC(=O)OC3c3ccoc3)[C@]12C (stereo partly drawn)
- AC50 [9]: 15.8 µM (inconclusive)

SMILES: CCNc1cc(O)ccc1C
- AC50 [9]: 25.1 µM (inconclusive)

SMILES: Cc1cc2ccccc2c(=O)n1CC(=O)NCCC1=CCCCC1
- EC50 [3]: > 50 µM (active)

SMILES: COCC(=O)Oc1c(Sc2ccccc2[N+](=O)[O-])c(C)nn1C(C)(C)C
- IC50 [4]: 50 µM (inactive)

SMILES: COc1ccc(-c2nc(NC(=O)c3ccccc3)sc2-c2ccc([N+](=O)[O-])cc2)cc1
- AC50 [10]: inconclusive
- AC50 [11]: 2.82 µM (inconclusive)
- AC50 ([8]; read-out: AC50): 1.26 µM (inconclusive)

SMILES: CC(COc1ccccc1)N1CCC(CO)(CCc2ccccc2)CC1 (stereo not drawn)
- EC50 [12]: 267 nM (active)

SMILES: CCc1ccc(-c2nn(-c3ccccc3)cc2CSC(=N)N)cc1
- CC50 [13]: 13.7 µM (active)
- EC50 [14]: 11.2 µM (active)
- EC50 [15]: > 133 µM (inactive)
- AC50 [16]: 8.15 µM (active)
- EC50 [17]: 9.61 µM (active)

SMILES: Cc1noc(C)c1-c1cc(N2CCN(C)CC2)ncn1
- AC50 [2]: inconclusive

SMILES: O=C(O)CSSCC(=O)O
- AC50 [10]: inconclusive
- AC50 [8]: inconclusive

SMILES: CC1Cc2cc(S(=O)(=O)N3CCC(C(=O)N4CCN(c5ccccc5F)CC4)CC3)ccc2N1C(=O)C1CC1 (stereo not drawn)
- IC50 [18]: 5.83 µM (active)
- AC50 [19]: 1.65 µM (active)
- AC50 [16]: 5.34 µM (active)
- AC50 [20]: 4.74 µM (active)

SMILES: Nc1nc2ncccn2c1-c1ccc(F)c(F)c1
- EC50 [5]: 9.39 µM (active)

SMILES: C[C@@H](NCc1cc(Br)cc2[nH]c(=O)c(=O)[nH]c12)P(=O)(O)O
- AC50 [2]: inconclusive

SMILES: C=CCN=C=S [ALLYL ISOTHIOCYANATE]
- AC50 [9]: 39.8 µM (inconclusive)
